From paper PMC10355216, “The C-terminal tail of CSNAP attenuates the CSN complex” (Life Science Alliance, 2023)
Where no end group is shown, it is not given here.

How the values were obtained:
CSN^ΔCSNAP complex = test: BIAcore surface plasmon resonance biosensor assay; conditions: C-terminally biotinylated peptide immobilized on SA chip, CSN^ΔCSNAP 1-8 nM injected, 180 s binding, 1,000 s dissociation, 25°C, 1:1 binding fit
Description: To validate the peptide array results, we used the surface plasmon resonance biosensor (Biacore) method to measure the binding affinities between C-CSNAP peptides and CSN^ΔCSNAP. We selected three peptides, the 16 residue C-terminal fragment (^42[…]^57, 16AA C-CSNAP) (Fig 4B), the 20 amino acid peptide (^38[…]^57, 20AA C-CSNAP) (Fig 4C), and a peptide containing the substitution of Asp to Glu at position 42 (D42E C-CSNAP) (Fig 4D). As a positive control, we used full-length CSNAP (Fig 4A), and a scrambled peptide ([…]) (Fig 4E) was used as a negative control. Interaction between the CSN^ΔCSNAP complex and the CSNAP variants was measured using a setting of 180 s binding followed by 1,000 s dissociation time (Fig 4).
Figure 4. C-CSNAP peptides display high affinity towards the CSN^ΔCSNAP complex. […] (F) Binding rate constants and affinities were determined via Biacore Evaluation Software analysis of SPR sensograms. […]
The experiments were carried out using Biacore SA200 SPR sensor (Biacore, GE Healthcare) with control software version 1.1 and Cytiva Series S Sensor chip SA. […] Data were analyzed in SA200 evaluation software version 1.1, with automatic fitting using parameter setting 1:1 binding (ka, kd, and tc global fit, Rmax and RI local fit).

CSN complex = test: Reciprocal co-immunoprecipitation (anti-CSN3, anti-GFP) of Cer fusions in HAP1 cells; assay type: cell-based; conditions: peptides fused to Cer expressed in HAP1 cells; anti-CSN3 and anti-GFP pull-downs
Description: To clarify the ability of C-CSNAP peptides to displace CSNAP in cells, we stably expressed four versions of CSNAP, the 16AA and 20AA C-CSNAP, D42E and scrambled peptides fused to the fluorescent protein Cer in HAP1 cells. As control, we used HAP1 cells expressing Cer only. We then performed reciprocal co-immunoprecipitation analyses, using antibodies against CSN3 and GFP recognizing Cer (Figs 6A and S5). […] This is reflected by the higher intensity of the GFP band upon CSN3 pull down, and by the more intense CSN3 band following GFP co-immunoprecipitation.
(§1) Figure 6. Expression of C-CSNAP reduces cellular proliferation rate. (A) Immunoprecipitation analysis using anti-GFP antibody recognizing cerulean (Cer) from lysates of cells expressing the Cer-fused 16AA, 20AA, D42E, and scrambled C-CSNAP in HAP1 WT cells. The COP9 signalosome complex was pulled down from all cells, except when Cer is expressed alone or fused to the scrambled C-CSNAP. Similarly, reciprocal immunoprecipitation by an anti-CSN3 antibody pulled down only the Cer-fused 16AA, 20AA, or D42E C-CSNAP. (B) Stable overexpression of 16AA and 20AA C-CSNAP–Cer in HAP1 WT cells reduces their rate of proliferation. […] One-way ANOVA (P < 0.05) with Dunnett’s multiple comparisons test was used to compare means *P < 0.05, **P < 0.01.
Figure S5. […]

CSN complex (CSN5) = test: Co-immunoprecipitation (anti-GFP) of transiently expressed Cer fusions in HAP1 WT cells; assay type: cell-based; conditions: transient expression of Cer fusions, anti-GFP pull-down, CSN5/GFP densitometry, at least three experiments
Description: To define whether C-CSNAP can displace the endogenous CSN subunit from the complex, we transiently expressed several versions of C-CSNAP peptides with differing lengths, fused to the fluorescent protein cerulean (Cer) in WT HAP1 cells (Fig 2A) and cells lacking CSNAP (ΔCSNAP cells) (Fig S2A). We then performed co-immunoprecipitation analyses, using an antibody against GFP that recognizes the Cer tag (Figs 2B and C and S2B). […] Moreover, in ΔCSNAP cells, all C-CSNAP derivatives were efficiently incorporated into CSN (Fig S2B), whereas in WT cells, differential integration was observed (Fig 2B). […] Truncations of the 16 amino acid stretch from either end decreased or abolished the incorporation efficiency (Fig 2B and C).
Figure 2. The last 16 amino acids of CSNAP efficiently displace the endogenous CSNAP subunit. (A) The different CSNAP C-terminal sequences that were examined. The 16 amino acid sequence is highlighted in blue, and the N- or C-terminally truncated forms are labelled in green and magenta, respectively (numbering of residues are corresponding to full length CSNAP). […] (C) Quantification of the densitometry results of at least three independent immunoprecipitation experiments using an anti-GFP antibody, represented as mean ratios of immunoprecipitated CSN5/GFP, followed by normalization to the sample transfected with Cer, plotted as mean ± SEM. […]

HAP1 WT cells = test: Resazurin-based cell proliferation assay; conditions: HAP1 WT cells stably expressing Cer fusions, 24 h after plating, five independent experiments
Description: as §1, with “0.01. […]” for “0.01.”
HAP1 WT cells stably expressing Cer, 16AA, and 20AA C-CSNAP–Cer were trypsinized and counted. […] Fluorescence intensities at 560/600 nm (ex/em) were measured, and average intensities of four replicates in each plate were calculated, normalized against WT after background subtraction, and normalized values from five independent experiments were compared on a bar graph with SEM. Significance was calculated using repeated measurment one-way ANOVA (P < 0.05) with Dunnett’s multiple comparisons test was used to compare means to Cer as control *P < 0.05, **P < 0.01.

| Kd (CSN^ΔCSNAP complex) | Substance | integration into the CSN complex, based on band intensities, in words (CSN complex) | association with / incorporation into the CSN complex, in words (CSN complex (CSN5)) | cell proliferation compared with cells expressing only Cer, in words (HAP1 WT cells) |
| --- | --- | --- | --- | --- |
| No measurable binding | IDGENVSNLDYARKAT [scrambled peptide] | – | – | – |
| – | 16AA C-CSNAP–Cer: 16AA C-CSNAP fused to the fluorescent protein cerulean (Cer), expressed in HAP1 cells (DFFNDFEDLFDDDDIQ; also: C-terminal fusion to Cerulean via Gly-Ser-Gly-Ser linker) | lower | highest degree of association with the CSN complex | significant reductions in cell proliferation |
